Reference: BindingDB's records for patent US20250313563 (The Broad Institute, 2025)
Where “and” joins values, the source holds several entries; their conditions need not be identical. Equal values may be shown once.

Assays:
[1] = target: Glycogen synthase kinase-3 beta (Homo sapiens, UniProt P49841); test: TR-FRET Assay
Outline: (§1)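 Enzyme and test compound were first incubated together for 30 minutes in assay buffer. The kinase reaction followed and was stopped with EDTA. The pSer641 signal was read by time-resolved FRET.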

[2] = target: Glycogen synthase kinase-3 alpha (Homo sapiens, UniProt P49840); test: TR-FRET Assay
Outline: as §1

Chain of Glycogen synthase kinase-3 alpha (P49840 whole entry): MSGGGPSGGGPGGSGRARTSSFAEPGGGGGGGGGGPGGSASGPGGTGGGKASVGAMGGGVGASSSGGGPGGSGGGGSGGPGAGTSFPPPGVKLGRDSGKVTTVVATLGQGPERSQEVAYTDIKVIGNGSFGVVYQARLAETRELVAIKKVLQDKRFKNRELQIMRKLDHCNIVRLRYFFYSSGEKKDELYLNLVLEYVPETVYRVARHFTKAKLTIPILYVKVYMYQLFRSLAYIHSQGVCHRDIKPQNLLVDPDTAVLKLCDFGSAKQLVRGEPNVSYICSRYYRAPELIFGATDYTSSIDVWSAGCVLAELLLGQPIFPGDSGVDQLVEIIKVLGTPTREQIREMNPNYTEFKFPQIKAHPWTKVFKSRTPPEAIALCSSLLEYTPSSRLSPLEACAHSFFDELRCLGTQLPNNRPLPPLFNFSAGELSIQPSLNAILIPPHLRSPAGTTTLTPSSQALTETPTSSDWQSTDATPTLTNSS
Chain of Glycogen synthase kinase-3 beta (P49841 whole entry): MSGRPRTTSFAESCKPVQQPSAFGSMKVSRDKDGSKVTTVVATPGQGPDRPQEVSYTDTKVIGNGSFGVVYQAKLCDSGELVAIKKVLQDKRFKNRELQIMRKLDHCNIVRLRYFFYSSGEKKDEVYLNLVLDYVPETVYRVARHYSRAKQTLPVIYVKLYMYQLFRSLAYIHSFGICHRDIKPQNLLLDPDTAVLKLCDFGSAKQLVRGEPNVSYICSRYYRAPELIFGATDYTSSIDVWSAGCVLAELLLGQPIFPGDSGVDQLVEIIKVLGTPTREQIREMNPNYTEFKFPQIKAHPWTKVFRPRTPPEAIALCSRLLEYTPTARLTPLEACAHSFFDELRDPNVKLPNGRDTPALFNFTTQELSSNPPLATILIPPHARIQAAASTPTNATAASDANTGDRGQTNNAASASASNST

IC50 [1]	IC50 [2]	SMILES
< 100 nM	< 100 nM	CCC1(c2cccc(-c3ccnc(O)c3)c2)C2=CN=NC2NC2=C1C(=O)CC(C)(C)C2 (centres undefined) [US20250313563, Compound 913352]
< 100 nM	< 100 nM	CCC1(c2cccc(N(Cc3ccccc3)C(C)=O)c2)C2=CN=NC2NC2=C1C(=O)CC(C)(C)C2 (centres undefined) [US20250313563, Compound 884110]
< 100 nM	< 100 nM	CC[C@]1(c2cccc(-c3cc(C)ncc3C)c2)C2=CN=NC2NC2=C1C(=O)CC(C)(C)C2 (some centres undefined) [US20250313563, Compound 943514]
< 100 nM	< 100 nM	CC[C@]1(c2cccc(N3CCCC3)c2)C2=C(CC(C)(C)CC2=O)NC2N=NC(C(F)(F)F)=C21 (some centres undefined) [US20250313563, Compound 819574]
< 100 nM and 1000 to 5000 nM	< 100 nM and 100 to 1000 nM	CC[C@]1(c2cccc(S(=O)(=O)CCOC)c2)C2=CN=NC2NC2=C1C(=O)CC(C)(C)C2 (some centres undefined) [US20250313563, Compound 943542]
100 to 1000 nM	100 to 1000 nM	CC[C@@]1(c2cccc(-c3ccnn3-c3ccc(F)cc3)c2)C2=CN=NC2NC2=C1C(=O)NC(C)(C)C2 (some centres undefined) [US20250313563, Compound 950822]
1000 to 5000 nM	100 to 1000 nM	CC(=O)N1CCCC2(CC1)C1=CN=NC1NC1=C2C(=O)CC(C)(C)C1 (centres undefined) [US20250313563, Compound 889575]
< 100 nM and 1000 to 5000 nM	< 100 nM and 100 to 1000 nM	CC[C@@]1(c2cccc(-c3ccnc(C)c3)c2)C2=C(CC(C)(C)NC2=O)NC2N=NC(Cl)=C21 (some centres undefined) [US20250313563, Compound 949422]
> 5000 nM	> 5000 nM	CC[C@@]1(c2cccc(CN(C)c3ccc(F)nc3)c2)C2=CN=NC2NC2=C1C(=O)CC(C)(C)C2 (some centres undefined) [US20250313563, Compound 932667]
100 to 1000 nM	< 100 nM	CC[C@@]1(c2cccc(-c3cnn(CCOC)c3)c2)C2=CN=NC2NC2=C1C(=O)NC(C)(C)C2 (some centres undefined) [US20250313563, Compound 949105]
> 5000 nM	1000 to 5000 nM	CC[C@]1(c2cccc(-c3cnn4c3CC(C)(C)CC4)c2)C2=CN=NC2NC2=C1C(=O)NC(C)(C)C2 (some centres undefined) [US20250313563, Compound 949265]
< 100 nM and 100 to 1000 nM	< 100 nM	CCC1(c2cccc(N3CCCCC3)c2)C2=C(CC(C)(C)NC2=O)NC2N=NC(C(F)(F)F)=C21 (centres undefined) [US20250313563, Compound 947861]
> 5000 nM	> 5000 nM	CCN1CC2(C1)C1=C(N=NC1)NC1=C2C(=O)CC(C)(C)C1 [US20250313563, Compound 929448]
> 5000 nM	> 5000 nM	CC[C@@]1(c2cccc(C(C)C)c2)C2=C(CC(C)(C)NC2=O)NC2N=NC(C)=C21 (some centres undefined) [US20250313563, Compound 949646]
100 to 1000 nM	< 100 nM	CC[C@]1(c2cccc(C(F)(F)F)c2)C2=C(N=NC2)NC2=C1C(=O)NC2(C)C [US20250313563, Compound 913451]
100 to 1000 nM	100 to 1000 nM	O=C1C2=C(NC3N=NC=C3C23CCOCC3)[C@H]2CC[C@@H]1C2 (some centres undefined) [US20250313563, Compound 912080]
> 5000 nM	1000 to 5000 nM	CC[C@@]1(c2cccc(C(F)(F)F)c2)C2=CN=NC2NC2=C1C(=O)N(C(C)(C)C)CC2 (some centres undefined) [US20250313563, Compound 945634]
1000 to 5000 nM	100 to 1000 nM	CC[C@@]1(c2cccc(N3CCCc4ncccc43)c2)C2=CN=NC2NC2=C1C(=O)CC(C)(C)C2 (some centres undefined) [US20250313563, Compound 917079]
> 5000 nM	1000 to 5000 nM	CCC1(c2ccc(F)cc2)C2=C(N=NC2)NC2=C1C(=O)CC(C)(C)C2 (centres undefined) [US20250313563, Compound 772965]
1000 to 5000 nM	100 to 1000 nM	CCC1(c2cccc(N(C)C(=O)CN3CCCC3)c2)C2=CN=NC2NC2=C1C(=O)CC(C)(C)C2 (centres undefined) [US20250313563, Compound 909202]
> 5000 nM	1000 to 5000 nM	CC(=O)N1CC2(C1)C1=C(N=NC1)NC1=C2C(=O)CC(C)(C)C1 [US20250313563, Compound 893314]
1000 to 5000 nM	100 to 1000 nM	CCC1(c2cccc(C(F)(F)F)c2)C2=CN=NC2NC2=C1C(=O)NC(c1ccccc1)C2 (centres undefined) [US20250313563, Compound 917284]
> 5000 nM	1000 to 5000 nM	CCC1(c2ccn(C)n2)C2=C(N=NC2)NC2=C1C(=O)CC(C)(C)C2 (centres undefined) [US20250313563, Compound 790619]
100 to 1000 nM	100 to 1000 nM	CC[C@]1(c2cccc(-c3ccnc(C)c3C)c2)C2=C(CC(C)(C)NC2=O)NC2N=NC(C(F)(F)F)=C21 (some centres undefined) [US20250313563, Compound 948181]
< 100 nM	< 100 nM	CCC1(c2cccc(-c3cnn(C)c3)c2)C2=C(CC(C)(C)NC2=O)NC2N=NC(Cl)=C21 (centres undefined) [US20250313563, Compound 948767]
> 5000 nM	100 to 1000 nM	CC[C@]1(c2ccccc2)C2=CN=NC2NC2=C1C(=O)C[C@]1(CCN(C)C1=O)C2 (some centres undefined) [US20250313563, Compound 949760]

IC50 [1]	IC50 [2]	SMILES
1000 to 5000 nM	100 to 1000 nM	CC[C@@]1(c2cccc(C(F)(F)F)c2)C2=CN=NC2NC2=C1C(=O)C[C@H](C)C2 (some centres undefined) [US20250313563, Compound 810452]
100 to 1000 nM	< 100 nM	CC[C@@]1(c2cccc(-c3ccnc(C(F)F)c3)c2)C2=CN=NC2NC2=C1C(=O)CC(C)(C)C2 (some centres undefined) [US20250313563, Compound 943919]
100 to 1000 nM	< 100 nM	CC[C@@]1(c2cccc(-c3ccncc3C)c2)C2=C(CC(C)(C)CC2=O)NC2N=NC(C(F)(F)F)=C21 (some centres undefined) [US20250313563, Compound 947325]
1000 to 5000 nM	100 to 1000 nM	CCC1(c2cccc(OC)c2)C2=C(N=NC2)NC2=C1C(=O)NC(C)(C)C2 (centres undefined) [US20250313563, Compound 948296]
100 to 1000 nM	< 100 nM	CC[C@]1(c2cccc(C3=C4CC=C(OC)C=C4N=CC3)c2)C2=CN=NC2NC2=C1C(=O)NC(C)(C)C2 (some centres undefined) [US20250313563, Compound 948661]
> 5000 nM	> 5000 nM	CC[C@@]1(c2cccc(C(F)(F)F)c2)C2=CN=NC2NC2=C1C(=O)N(C)C[C@H]2C (some centres undefined) [US20250313563, Compound 883982]
100 to 1000 nM	< 100 nM	CC[C@]1(c2cccc(C(F)(F)F)c2)C2=C(N=NC2)NC2=C1C(=O)C(C)(C)C2 [US20250313563, Compound 950272]
1000 to 5000 nM	100 to 1000 nM	CC[C@]1(c2cccc(N3CCCCC3)c2)C2=C(CC(C)(C)NC2=O)NC2N=NC(C(F)(F)F)=C21 (some centres undefined) [US20250313563, Compound 949178]
100 to 1000 nM	< 100 nM	CC1(C)CC(=O)C2=C(C1)NC1=C(CN=N1)[C@]21CC[C@H](C(F)(F)F)C1 [US20250313563, Compound 952435]
> 5000 nM	> 5000 nM	CC[C@@]1(c2cccc(N3CCCC[C@H]3C)c2)C2=CN=NC2NC2=C1C(=O)CC(C)(C)C2 (some centres undefined) [US20250313563, Compound 917210]
100 to 1000 nM	100 to 1000 nM	CC[C@@]1(c2cccc(-c3c(C)nn(C)c3C)c2)C2=C(CC(C)(C)CC2=O)NC2N=NC(C)=C21 (some centres undefined) [US20250313563, Compound 913026]
< 100 nM	< 100 nM	CC1(C)CC(=O)C2=C(C1)NC1=C(CN=N1)C21CCN(S(=O)(=O)c2cccc(C(F)(F)F)c2)CC1 [US20250313563, Compound 947244]
1000 to 5000 nM	100 to 1000 nM	CC1CC(C(=O)N2CC3(C2)C[C@]2(CO3)C3=C(N=NC3)NC3=C2C(=O)CC(C)(C)C3)C1 (some centres undefined) [US20250313563, Compound 947732]
> 5000 nM	> 5000 nM	CC[C@]1(c2cccc(C(F)(F)F)c2)C2=CN=NC2NC2=C1C(=O)C[C@@]1(CCNC1=O)C2 (some centres undefined) [US20250313563, Compound 950332]
100 to 1000 nM	< 100 nM	CC[C@@]1(c2cccc(C3=C4CC=CC(C)=C4N=CC3)c2)C2=CN=NC2NC2=C1C(=O)NC(C)(C)C2 (some centres undefined) [US20250313563, Compound 952909]
100 to 1000 nM	1000 to 5000 nM	CC(C)(C)CC1N=NC2=C1[C@](C)(c1cccc(S(=O)(=O)C(F)(F)F)c1)C1=C(CC(C)(C)CC1=O)N2 (some centres undefined) [US20250313563, Compound 126395]
> 5000 nM	> 1670 nM	CC[C@]1(c2cccc(C)c2)C2=CN=NC2NC2=C1C(=O)CC1(CCCC1)C2 (some centres undefined) [US20250313563, Compound 801313]
< 100 nM	< 100 nM	COc1ccc(F)c(S(=O)(=O)N2CCC3(CC2)C2=C(N=NC2)NC2=C3C(=O)CC(C)(C)C2)c1 [US20250313563, Compound 945665]
> 5000 nM	> 5000 nM	CC[C@@]1(c2cccc(C(F)(F)F)c2)C2=C(N=NC2)NC2=C1C(=O)N(Cc1ccccc1)[C@H]2C [US20250313563, Compound 930333]
> 5000 nM	> 1670 nM	CCC1(c2cccc(N3CCN(C)CC3)c2)C2=CN=NC2NC2=C1C(=O)CC(C)(C)C2 (centres undefined) [US20250313563, Compound 810379]
1000 to 5000 nM	100 to 1000 nM	CC(C)(C)CC(=O)N1CC2(C1)CC1(CO2)C2=C(N=NC2)NC2=C1C(=O)CC(C)(C)C2 (centres undefined) [US20250313563, Compound 947301]
> 5000 nM	> 5000 nM	CC(C)(C)CC1N=NC2=C1[C@@](C)(c1cccc(S(=O)(=O)N3CCCC3)c1)C1=C(CC(C)(C)NC1=O)N2 (some centres undefined) [US20250313563, Compound 108794]
100 to 1000 nM	100 to 1000 nM	CC1(C)CC(=O)C2=C(C1)NC1=C(CN=N1)[C@@]21CCOC2(CCOCC2)C1 [US20250313563, Compound 924306]
1000 to 5000 nM	100 to 1000 nM	CC[C@]1(c2cccc(-c3cnnn3C)c2)C2=CN=NC2NC2=C1C(=O)CC(C)(C)C2 (some centres undefined) [US20250313563, Compound 947824]
100 to 1000 nM	< 100 nM	CCC1(c2cccc(N(C)c3ccccn3)c2)C2=CN=NC2NC2=C1C(=O)CC(C)(C)C2 (centres undefined) [US20250313563, Compound 874294]
1000 to 5000 nM	100 to 1000 nM	CC[C@@]1(c2cccc(-c3cnnc(C)c3)c2)C2=CN=NC2NC2=C1C(=O)CC(C)(C)C2 (some centres undefined) [US20250313563, Compound 943994]
